Some test systems named below: SK-MEL-5 melanoma; MDA-MB-231 breast; SF-539 CNS; NCI/ADR-RES ovarian; HT29 colon; MDA-MB-435; SF-268 CNS; HCC-2998 colon; MOLT-4 leukemia; SW-620 colon.
What all share (assay): NCI-60 cell line screen, 48 h

Molecules are shown by their SMILES.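 Method: 48-hour compound exposure of cells in 96-well plates, five concentrations, linear interpolation of endpoints. GI50 marks 50% less growth. TGI: total growth inhibition.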 Where only a bound is given, the exact number is not on record here.

On to `Cn1cc(C2=C(c3c4n(c5ccccc35)CCNC4)C(=O)NC2=O)c2ccccc21`, for which the GI50 with SK-MEL-5 melanoma is 4.82 µM; in the assay with MDA-MB-231 breast it was 9.87 µM; in the assay with SF-539 CNS, 5.72 µM; with NCI/ADR-RES ovarian it was 12.7 µM; with HT29 colon it was 5.2 µM; in the assay on MDA-MB-435, 0.991 µM. For the same compound, the GI50 in the assay on SF-268 CNS is 10.5 µM; in the assay on HCC-2998 colon, 7.41 µM; with MOLT-4 leukemia, 11 µM; in the assay on SW-620 colon, 6.92 µM. In addition, the TGI in the assay with SK-MEL-5 melanoma was over 17.2 µM; with MDA-MB-231 breast it was over 25 µM; in the assay on SF-539 CNS, 14.3 µM; with NCI/ADR-RES ovarian it was over 25 µM; in the assay with HT29 colon, over 25 µM; in the assay with MDA-MB-435, over 17.1 µM. Moreover, the TGI with SF-268 CNS was over 25 µM; with HCC-2998 colon, over 17.4 µM; with MOLT-4 leukemia it was over 25 µM; in the assay on SW-620 colon, over 25 µM.

Turning to `COc1ccc(/C=C/C(=O)c2c(O)ccc3c(C)c(C(=O)O)oc23)cc1`, the GI50 with SK-MEL-5 melanoma was 46.4 µM; in the assay on MDA-MB-231 breast, 44.7 µM; with SF-539 CNS it was 35.6 µM; in the assay with NCI/ADR-RES ovarian, 61.9 µM; in the assay with HT29 colon, over 100 µM; with MDA-MB-435, 50.5 µM. In addition, the GI50 in the assay with SF-268 CNS was 42.3 µM; in the assay on HCC-2998 colon, 36.7 µM; with MOLT-4 leukemia, 31 µM; in the assay on SW-620 colon, 56.3 µM. Besides, the TGI in the assay on SK-MEL-5 melanoma, in the assay on MDA-MB-231 breast, with SF-539 CNS, in the assay on NCI/ADR-RES ovarian, in the assay on HT29 colon and in the assay with MDA-MB-435 was over 100 µM each time. Moreover, the TGI in the assay with SF-268 CNS, in the assay on HCC-2998 colon, in the assay with MOLT-4 leukemia and in the assay with SW-620 colon was over 100 µM in each case.

In the case of `CN1CCN(Cc2ccc(NC(=O)c3cncc(C#Cc4c(N)ncc5ccc(C#N)cc45)c3)cc2C(F)(F)F)CC1`, the GI50 was 0.785 µM with SK-MEL-5 melanoma; 0.525 µM in the assay on MDA-MB-231 breast; 0.76 µM in the assay on SF-539 CNS; 1.11 µM with NCI/ADR-RES ovarian; 0.079 µM in the assay on HT29 colon; 0.333 µM in the assay on MDA-MB-435. Also, the GI50 was 0.91 µM in the assay with SF-268 CNS, 1.72 µM in the assay on HCC-2998 colon, 0.801 µM in the assay on MOLT-4 leukemia and 0.696 µM in the assay with SW-620 colon. Moreover, the TGI in the assay on SK-MEL-5 melanoma worked out at 1.54 µM; in the assay with MDA-MB-231 breast, 1.23 µM; in the assay with SF-539 CNS it was 3.07 µM; in the assay with NCI/ADR-RES ovarian it was 2.63 µM; with HT29 colon, 1.17 µM; in the assay with MDA-MB-435, 1.07 µM. Further, the TGI came to 1.89 µM in the assay with SF-268 CNS, 5.03 µM in the assay on HCC-2998 colon, 2.96 µM in the assay on MOLT-4 leukemia and 1.53 µM with SW-620 colon.

As to `CC1CCCC(C(=O)CC2CC(=O)NC(=O)C2)C1=O` (stereo not given), the TGI in the assay on SK-MEL-5 melanoma, with MDA-MB-231 breast, in the assay on SF-539 CNS, in the assay with NCI/ADR-RES ovarian, in the assay on HT29 colon and with MDA-MB-435 was over 100 µM throughout. The TGI in the assay with SF-268 CNS, in the assay with HCC-2998 colon, with MOLT-4 leukemia and with SW-620 colon was over 100 µM each time.

As for `Oc1cc(N2CC2)c(O)cc1N1CC1`, the GI50 with SK-MEL-5 melanoma is 0.874 µM; in the assay with MDA-MB-231 breast, 10.3 µM; in the assay on SF-539 CNS it was 0.389 µM; in the assay with NCI/ADR-RES ovarian it was 0.961 µM; in the assay on HT29 colon, 0.384 µM; in the assay with MDA-MB-435, 1.37 µM. Besides, the GI50 in the assay on SF-268 CNS was 0.585 µM; in the assay on HCC-2998 colon it was 1.49 µM; in the assay with MOLT-4 leukemia, 0.591 µM; with SW-620 colon it was 0.372 µM. Also, the TGI came out at 2.99 µM in the assay with SK-MEL-5 melanoma; 64.2 µM in the assay on MDA-MB-231 breast; 2.38 µM with SF-539 CNS; 7.55 µM in the assay on NCI/ADR-RES ovarian; 6.79 µM with HT29 colon; 3.32 µM in the assay on MDA-MB-435. The TGI stood at 7.97 µM in the assay with SF-268 CNS, 2.98 µM in the assay with HCC-2998 colon, 7.89 µM in the assay on MOLT-4 leukemia and 7.37 µM in the assay on SW-620 colon.

For the compound `O=C(CCCn1c2c(sc3ccccc32)c(=O)n2nnc(-c3ccccc3)c12)NCCc1cnc[nH]1`, the GI50 in the assay with SK-MEL-5 melanoma is 1.84 µM; in the assay with MDA-MB-231 breast it was 1.91 µM; in the assay on SF-539 CNS, under 0.0144 µM; with NCI/ADR-RES ovarian, 0.972 µM; in the assay with HT29 colon, 0.719 µM; in the assay with MDA-MB-435, 0.345 µM. Also, the GI50 in the assay with SF-268 CNS was 1.8 µM; in the assay on HCC-2998 colon, 1.26 µM; with MOLT-4 leukemia it was 0.815 µM; with SW-620 colon, 0.0245 µM. The TGI in the assay with SK-MEL-5 melanoma was 11.4 µM; in the assay with MDA-MB-231 breast, 3.5 µM; in the assay on SF-539 CNS it was 0.111 µM; in the assay on NCI/ADR-RES ovarian, over 24.4 µM; with HT29 colon it was 2.36 µM; in the assay with MDA-MB-435, 1.87 µM. For the same compound, the TGI is 4.35 µM with SF-268 CNS, 3.41 µM in the assay with HCC-2998 colon, over 100 µM in the assay with MOLT-4 leukemia and 0.362 µM in the assay on SW-620 colon.
